{
  "source": "paper PMC5457512",
  "about": "“Structural basis for perception of diverse chemical substances by T1r taste receptors” (Nature Communications, 2017)",
  "molecules": {"B1": {"name": "Fab16A, Fab fragment of the anti-T1r2a-3LBD monoclonal antibody clone 16A (Fab, V domains shown)", "VH": "EVQLQQSGPELVKPGASMKISCKASGYSFTGYSMNWVKQSHGKNLEWIGLINPYNGDTTYKQKFKGKATLTVDRSSSTAYMELLRLTSEDSAVYYCARSGRGAPTTTTAWFTYWGQGTLVTVSA", "VL": "DIVLTQSPASLAVSLGQRATISCRASESVDSYGNSFMHWYQQKPGQPPILLISRASNLESGIPARFSGSGSRTDFTLTINPVEADDFATYYCQQTNEDPRTFGGGTKLEIK", "notes": "Parent antibody is mouse IgG1:kappa; Fab made by papain digestion; also called anti-T1r2a-3LBD mAb clone 16A; source: mouse hybridoma (Mikuri Immunological Lab. Co.); IgG digested with Immobilized-Papain, purified (Protein A Sepharose, Mono S)"}},
  "key": {"[1]": {"settings": "cited from earlier work; for Hydropathy index: ref Handbook of Chemistry and Physics, CRC Press; for pI: ref Kyte & Doolittle, J. Mol. Biol., 157, 105-132, 1982; for Volume: ref Tsai et al. J. Mol. Biol., 290, 253-266,1999"}, "[2]": {"biological_target": "full-length T1r2a–T1r3 receptor (Oryzias latipes, UniProt A0A173M094+A0A173M0G2)", "test": "Ca2+ flux assay of full-length receptor in HEK293 (Flip-In 293) cells", "format": "cell-based, medaka fish (Oryzias latipes)", "settings": "for Response of the full-length receptor according to Ca2+-imaging: qualitative, tested up to 10 mM", "description": "(§1) The Ca^2+ flux assays were performed using a FLEX station 3 (Molecular Devices, LLC) for the cells loaded with 100 μl of Hank's balanced salt solution (Sigma-Aldrich), containing 5 μM of the calcium indicator dye Fluo8 NW (AAT Bioquest). The stimulation was performed by adding 25 μl of 5 × concentrated solutions of taste substances, using a pipette. The intensity of the response was represented as ΔRFU (delta relative fluorescence unit) defined as maximum fluorescence value for the taste substances minus that for the Hank's Balanced Salt Solution, and was plotted versus the ligand concentration. The concentration-response curves were fitted to the Hill equation, using SigmaPlot software (Systat Software)."}, "T1r2a–T1r3:S300E mutant": {"biological_target": "T1, T1r2a–T1r3:S300E mutant (Oryzias latipes, UniProt A0A173M0G2)", "T1 sequence (A0A173M0G2 12-802)": "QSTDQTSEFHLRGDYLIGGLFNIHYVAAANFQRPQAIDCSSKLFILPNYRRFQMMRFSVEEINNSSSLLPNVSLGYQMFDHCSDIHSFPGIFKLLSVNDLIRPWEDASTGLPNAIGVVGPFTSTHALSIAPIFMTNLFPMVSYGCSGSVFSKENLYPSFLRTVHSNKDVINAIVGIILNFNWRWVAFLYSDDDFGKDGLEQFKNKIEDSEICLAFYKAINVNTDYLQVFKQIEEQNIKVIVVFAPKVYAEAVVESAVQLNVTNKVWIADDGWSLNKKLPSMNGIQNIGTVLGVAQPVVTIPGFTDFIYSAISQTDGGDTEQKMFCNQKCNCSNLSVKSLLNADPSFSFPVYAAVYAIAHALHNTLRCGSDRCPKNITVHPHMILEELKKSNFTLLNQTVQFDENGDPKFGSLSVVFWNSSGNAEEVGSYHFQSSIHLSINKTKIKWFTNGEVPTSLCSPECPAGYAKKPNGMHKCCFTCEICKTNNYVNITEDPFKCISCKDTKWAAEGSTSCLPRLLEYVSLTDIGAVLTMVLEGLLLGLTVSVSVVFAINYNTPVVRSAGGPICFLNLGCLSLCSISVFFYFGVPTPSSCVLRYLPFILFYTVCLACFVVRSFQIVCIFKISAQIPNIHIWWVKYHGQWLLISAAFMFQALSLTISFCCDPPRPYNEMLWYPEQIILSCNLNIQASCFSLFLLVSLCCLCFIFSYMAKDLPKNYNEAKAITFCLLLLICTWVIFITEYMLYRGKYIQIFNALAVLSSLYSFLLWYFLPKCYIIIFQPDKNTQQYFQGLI", "T1 sequence (A0A173M094 12-836 partner)": "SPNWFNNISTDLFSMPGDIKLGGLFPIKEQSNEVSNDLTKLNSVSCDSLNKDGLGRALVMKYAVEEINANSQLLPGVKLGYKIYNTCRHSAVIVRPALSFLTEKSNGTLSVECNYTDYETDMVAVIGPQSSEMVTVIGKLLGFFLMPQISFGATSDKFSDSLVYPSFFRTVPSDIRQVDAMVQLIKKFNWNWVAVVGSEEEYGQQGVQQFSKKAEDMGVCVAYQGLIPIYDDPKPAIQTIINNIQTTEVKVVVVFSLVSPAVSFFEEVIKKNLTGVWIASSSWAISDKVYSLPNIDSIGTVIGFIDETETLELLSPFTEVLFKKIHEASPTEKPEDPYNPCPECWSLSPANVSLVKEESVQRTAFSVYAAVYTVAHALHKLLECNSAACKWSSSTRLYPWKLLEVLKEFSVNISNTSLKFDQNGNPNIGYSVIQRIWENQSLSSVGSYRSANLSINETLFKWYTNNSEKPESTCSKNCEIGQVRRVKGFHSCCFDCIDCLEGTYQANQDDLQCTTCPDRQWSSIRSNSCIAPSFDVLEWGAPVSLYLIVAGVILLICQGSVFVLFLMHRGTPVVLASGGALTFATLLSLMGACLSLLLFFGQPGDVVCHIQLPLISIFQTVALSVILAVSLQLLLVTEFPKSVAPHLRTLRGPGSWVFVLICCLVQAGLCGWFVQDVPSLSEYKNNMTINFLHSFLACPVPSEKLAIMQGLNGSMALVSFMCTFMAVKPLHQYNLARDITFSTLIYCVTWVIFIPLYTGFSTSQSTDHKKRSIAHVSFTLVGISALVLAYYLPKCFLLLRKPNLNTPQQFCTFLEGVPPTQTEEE", "test": "cell-based", "design": "species or system medaka fish (Oryzias latipes)", "description": "as §1\nMutations were introduced using QuikChange (Agilent Technologies) or PrimeStarMax (TAKARA BIO, only for T1r2a:S165I) with primers summarized in Supplementary Table 3."}, "[3]": {"biological_target": "T1r2a–T1r3LBD heterodimer (Oryzias latipes, UniProt A0A173M094+A0A173M0G2)", "test": "FRET signal change of T1r2aLBD-Cerulean and T1r3LBD-Venus heterodimer on amino acid binding", "settings": "for FRET signal elevation of fluorescence-labelled LBDs: qualitative", "protocol": "The conformational change of T1r2a–T1r3LBD on ligand binding was analysed by Förster resonance energy transfer (FRET) measurement. The heterodimer of the T1r2aLBD (M1-S474)—Celurean fusion protein (T1r2aL-Ce) and the T1r3LBD (M1-S491)—Venus fusion protein (T1r3L-Ve) was stably expressed by S2 cells (Invitrogen) and purified by ANTI-FLAG M2 affinity gel (SIGMA) by use of the FLAG-tag at their C termini, as previously described[22]. […] The titration curves were fitted to the Hill equation by using KaleidaGraph (Synergy Software).\nTherefore, at least two independent measurements were performed in this study, except for the inset in Fig. 2a with a single analysis."}, "human T1r1–T1r3": {"test_system": "human T1r1–T1r3", "design": "method as in PMID 24214976", "settings": "cited from earlier work"}, "[4]": {"biological_target": "T2, T1r2a-T1r3LBD heterodimer, medaka fish (Oryzias latipes (medaka fish), UniProt A0A173M0G2;A0A173M094, glycosyl chains trimmed to single N-acetylglucosamine residues by Endo H | glycosyl chains trimmed to single N-acetylglucosamine residues by Endo H)", "T2 construct": "signal peptide in the construct; The two chains are joined by an intermolecular disulfide bridge, Cys344 (T1r2a) to Cys132 (T1r3); also called T1r2a-3LBD; T1r2aLBD-T1r3LBD heterodimer; source: S2 cells, stably co-expressed (5 uM kifunensine), from culture medium, purified (ANTI-FLAG M2, factor Xa, Endo H, SEC); not shown: FLAG, C-terminal, cleaved; copies: 1 + 1", "test": "crystal structure; T1r2a-3LBD heterodimer co-crystallised with Fab16A, with bound L-Gln, L-Ala, L-Arg, L-Glu or Gly; sitting-drop vapor diffusion with microseeding, PEG 1500, PEG400, 0.1 M MES pH 6.0, 293 K", "settings": "both partners purified"}, "[5]": {"settings": "fitted parameter ± s.e. of Hill equation, Fig. 2b, intracellular Ca2+ elevation, HEK293, read-out: EC50 Receptor responses, T1r2a wt T1r3 wt"}, "[6]": {"settings": "fitted parameter ± s.e. of Hill equation, intracellular Ca2+ elevation, HEK293, read-out: EC50 Receptor responses, T1r2a wt T1r3 S300E"}},
  "note": "Like-named read-outs stand apart in the source and are kept apart here.",
  "data": [
    {"molecule": "N=C(N)NCCC[C@H](N)C(=O)O", "note": "[L-Arginine]", "values": [
      {"measurement": "Hydropathy index", "setting": "[1]", "result": -4.5},
      {"measurement": "pI", "setting": "[1]", "result": 10.76},
      {"measurement": "Volume", "setting": "[1]", "result": 194.0, "unit": "Å3"},
      {"measurement": "EC50", "setting": "[2]", "result": "470 ± 297", "unit": "µM"},
      {"measurement": "Response of the full-length receptor according to Ca2+-imaging", "setting": "[2]; Fig. 2b", "result": "induced responses"},
      {"measurement": "EC50", "setting": "T1r2a–T1r3:S300E mutant", "result": "1300 ± 100", "unit": "µM"},
      {"measurement": "EC50", "setting": "[3]", "result": "190 ± 35", "unit": "µM"},
      {"measurement": "FRET signal elevation of fluorescence-labelled LBDs", "setting": "[3]; Fig. 2a", "result": "induced FRET signal elevation"}
    ]},
    {"molecule": "NCC(=O)O", "note": "[Glycine]", "values": [
      {"measurement": "Response of the full-length receptor according to Ca2+-imaging", "setting": "[2]; Fig. 2b", "result": "poor or no significant receptor responses"},
      {"measurement": "FRET signal elevation of fluorescence-labelled LBDs", "setting": "[3]; Fig. 2a", "result": "induced FRET signal elevation"},
      {"measurement": "EC50", "setting": "[3]; read-out: EC50 FRET changes of LBD, T1r2aLBD wt T1r3LBD wt, fitted parameter ± s.e. of Hill equation, Fig. 2a, room temperature", "result": "6180 ± 3320", "unit": "µM"}
    ]},
    {"molecule": "C[C@H](N)C(=O)O", "note": "[L-Alanine]", "values": [
      {"measurement": "Hydropathy index", "setting": "[1]", "result": 1.8},
      {"measurement": "pI", "setting": "[1]", "result": 6.00},
      {"measurement": "Volume", "setting": "[1]", "result": 90.0, "unit": "Å3"},
      {"measurement": "Response of the full-length receptor according to Ca2+-imaging", "setting": "[2]; Fig. 2b", "result": "induced responses"},
      {"measurement": "EC50", "setting": "[2]; [5]", "result": "2460 ± 2670", "unit": "µM"},
      {"measurement": "EC50", "setting": "T1r2a–T1r3:S300E mutant; [6]", "result": "1800 ± 300", "unit": "µM"},
      {"measurement": "EC50", "setting": "[3]", "result": "141 ± 37", "unit": "µM"},
      {"measurement": "FRET signal elevation of fluorescence-labelled LBDs", "setting": "[3]; Fig. 2a", "result": "induced FRET signal elevation"}
    ]},
    {"molecule": "NC(=O)CC[C@H](N)C(=O)O", "note": "[L-Glutamine]", "values": [
      {"measurement": "Response of the full-length receptor according to Ca2+-imaging", "setting": "[2]; Fig. 2b", "result": "induced responses"},
      {"measurement": "EC50", "setting": "[2]; [5]", "result": "70 ± 8", "unit": "µM"},
      {"measurement": "EC50", "setting": "T1r2a–T1r3:S300E mutant; [6]", "result": "200 ± 19", "unit": "µM"},
      {"measurement": "EC50", "setting": "[3]", "result": "11.5 ± 3.4", "unit": "µM"},
      {"measurement": "FRET signal elevation of fluorescence-labelled LBDs", "setting": "[3]; Fig. 2a", "result": "induced FRET signal elevation"}
    ]},
    {"molecule": "NC(=O)CCC(N)C(=O)O", "note": "(stereo in doubt) [D-glutamine]", "values": [
      {"measurement": "FRET signal elevation of fluorescence-labelled LBDs, L- versus D-glutamine comparison", "setting": "[3]; Fig. 2a inset, 283 K, single analysis", "result": "but not D-glutamine, induced FRET signal elevation"}
    ]},
    {"molecule": "N[C@@H](CCC(=O)O)C(=O)O", "note": "[L-Glutamate]", "values": [
      {"measurement": "Hydropathy index", "setting": "[1]", "result": -3.5},
      {"measurement": "pI", "setting": "[1]", "result": 3.22},
      {"measurement": "Volume", "setting": "[1]", "result": 142.2, "unit": "Å3"},
      {"measurement": "Response of the full-length receptor according to Ca2+-imaging", "setting": "[2]; Fig. 2b", "result": "poor or no significant receptor responses"},
      {"measurement": "EC50", "setting": "human T1r1–T1r3", "result": "~2700", "unit": "µM"},
      {"measurement": "EC50", "setting": "[3]", "result": "1070 ± 382", "unit": "µM"},
      {"measurement": "FRET signal elevation of fluorescence-labelled LBDs", "setting": "[3]; Fig. 2a", "result": "induced FRET signal elevation"},
      {"measurement": "Maximum FRET change at saturating concentrations", "setting": "[3]; compared with glutamine, Fig. 2a", "result": "larger changes"}
    ]},
    {"molecule": "B1", "values": [
      {"measurement": "binding result", "setting": "[4]", "result": "binds"}
    ]}
  ]
}
